Laboratory results reported in patent publication US9463337B2, “Multifunctional hair color protector” (GALAXY SURFACTANTS LTD., priority 2013, dated 2016).

Columns and labels:
[1] = Substantivity (deposition) on hair tresses; details: 0.5% aqueous solution/dispersion on hair tresses
[2] = system: P. aeruginosa, E. coli, S. aureus, Candida albicans and A. niger; assay: CTFA challenge test, overall outcome; assay type: cell-based; details: 30% aqueous paste
Excerpt: It was challenge tested with both Gram negative, Gram positive bacteria and yeast and mold by the standard challenge test protocol recommended by CTFA. The test organisms used were P. aeruginosa, E. coli, S. aureus, Candida albicans and A. niger.
(§1) Following strains of Gram positive, Gram negative bacteria and yeast and mold were used for the challenge test. Staphylococcus aureus ATCC 653, Escherichia coli ATCC 8739, Pseudomonas aeruginosa ATCC 15442, Candida albicans ATCC 10231, and Aspergillus niger ATCC 16404.
(§2) The test is conducted in the six sterile containers each containing a fix equal amount of test sample. Each container was inoculated with a 1% of standardized Inoculum of the microorganism.
(§3) The initial concentration of the viable microorganism in each test preparation is estimated based on the concentration of microorganism in each of the standardized Inoculum as determined by the plate count method.
(§4) Each container is incubated at 25° C. The aliquot of sample of each container is removed at appropriate intervals of time 0 day, 24 hrs, 48 hrs, and 7 days, 14 days, 21 days and 28 days.

[3] = UV absorption of MCBDC; assay type: physicochemical
Excerpt: MCDBC is obtained as practically odorless white paste and has solids content of 30% (Example 2). The product as such has absorbance (E 1%, 1 cm) of 130 at λ max of 306 nm in ethanol.
Its molar extinction coefficient c is 28,000 when measured at same λ max
The white pasty mass that is practically odorless had E1% 1 cm of 130 at λ max 306 nm in EtOH.

[4] = Hair color protection (anti-fade) through rinse-off conditioner, Hunter L* a* b*; details: rinse-off conditioner with MCBDC vs placebo, ten wash/UV cycles, five hours total UV exposure
Protocol: They were dyed using L'Oreal's Burgundy color as per the protocol described by the dye manufacturer.
Hair coloring (hair dyeing) process is performed as recommended by the marketed product. The color and the developer were mixed in ratio of 1:1 and shampooed hair tresses were treated with the same. The color and developer mixture was applied uniformly to the hair tresses and covered with the aluminum foil for twenty minutes. After this the hair tresses were washed with warm water. […] The ‘Placebo’ and ‘Treated’ hair tresses were exposed to UV radiation, total exposure of five hours through total to washing cycles comprising, shampooing, conditioning, rinsing and UV exposure of 30 mins at time using the equipment described in Example 5. The fading of color of the sets of hair tresses, Control, Placebo and Treated was measured on the Hunter instrument, Labscan XE spectrophotometer. The total color loss (ΔE) is assessed by the change in L* a* b* scale using the equation ΔE=[(ΔL)^2+(Δa)^2+(Δb)^2]^1/2.

[5] = Zeta potential, Malvern Zetasizer Nano; assay type: physicochemical; details: 1% dispersion
Excerpt: Also the high zeta potential ensures the stability of colloidal dispersions.

[6] = Viscosity boosting in SLES/CAPB shampoo formulation; assay type: physicochemical
Protocol: A typical placebo shampoo base was prepared with sodium lauryl ether sulphate (12%), cocoamidopropyl betaine (4%), EDTA disodium salt (0.1%), preservative (1%, phenoxy ethanol containing four parabens) and rest deionized water. […] All ingredients were mixed using a Silverson homogenizer thoroughly till a uniform homogeneous mixture was formed.
The base shampoo based on sodium lauryl ether sulphate (2EO) and cocoamidopropyl betaine was prepared as described in Example 4.

[7] = Combing force on Diastron tensile tester after shampoo application; details: shampoo containing MCBDC (2%), one application, as compared to placebo shampoo
[8] = Sensory evaluation of shampooed hair; details: shampoo containing 2.0% MCBDC vs base shampoo, panel of 10
Protocol: Sensory Evaluation of shampooed hair: The subjective evaluation was conducted by the panel of 10. The evaluator scored tresses of the scale of 1 to 2.

[9] = Surface tension of water (surface activity); assay type: physicochemical
[10] = Hair protection against UV induced damage through rinse-off conditioner (combing force); details: rinse-off conditioner with 2% MCBDC vs placebo conditioner
Protocol: Double bleached European hair were shampooed with the placebo shampoo of Example 4 and conditioned according to the following protocol. The details of UV chamber and exposure conditions are given below.
Placebo shampoo of Example 4 was applied for 1 minute to European hair and rinsed the tresses with water for one minute 25° C. with controlled finger movements. This was followed by conditioner application for one minute application time, one minute contact time and one and half minute for rinsing off with warm water (40° C.).
Treated hair tresses were exposed to UV radiation with the help of UV lamp for 48 hours. UV exposed hair tresses were then subjected to combing force evaluation on Diastron tensile tester.
Two tresses per treatment were used. The treated tresses were irradiated with UV chamber which is equipped with two tubes emitting UV light in short UV (254 nm) and long UV 315-400 nm) regions. Sankyo Denki G8TS tube with UV output of 2.5 W was used as short UV light source while Sankyo Denki F8T5BLB backlight—blue tube with UV output of 1.4 W was used as long UV light source. Washing and UV exposure was given in the following sequence for 50 h. UV exposed tresses were washed with isopropanol to remove the quaternary followed by combing force measurement on Diastron Tensile Tester (MTT 175).

[11] = system: Escherichia coli ATCC 8739; assay: Challenge test on aqueous paste (30%); assay type: cell-based; details: 30% aqueous paste, 25° C.
Protocol: as §1, §2, §3, §4

[12] = system: Aspergillus niger ATCC 16404; assay: Challenge test on aqueous paste (30%); assay type: cell-based; details: 30% aqueous paste, 25° C.
Protocol: as §1, §2, §3, §4

[13] = system: Staphylococcus aureus ATCC 653; assay: Challenge test on aqueous paste (30%); assay type: cell-based; details: 30% aqueous paste, 25° C.
Protocol: as §1, §2, §3, §4

[14] = system: Pseudomonas aeruginosa ATCC 15442; assay: Challenge test on aqueous paste (30%); assay type: cell-based; details: 30% aqueous paste, 25° C.
Protocol: as §1, §2, §3, §4

[15] = system: Candida albicans ATCC 10231; assay: Challenge test on aqueous paste (30%); assay type: cell-based; details: 30% aqueous paste, 25° C.
Protocol: as §1, §2, §3, §4

COc1cc(O)c(C(=O)c2ccccc2)cc1S(=O)(=O)O [B-4, Benzophenone-4]
amount deposited on hair (substantivity) [1]: 276 μg/g of hair

p-methoxy cinnamidopropyl behenyl dimethyl ammonium chloride [MCBDC]
preservation outcome of challenge test [2]: self preserving
molar extinction coefficient ([3]; at λ max 306 nm): 28,000
absorbance (E 1%, 1 cm) ([3]; λ max 306 nm in ethanol, product as such, paste with solids content 30%): 130
total color loss (ΔE) [4]: Lower ΔE
Zeta potential [5]: +47 mV
change in viscosity of shampoo formulation ([6]; MCBDC 0.5% to 2.0% in base (3000 cps, salt 0.7%), Brookfield spindle No 4, 12 rpm, 25° C.): linear increase in viscosity
viscosity of shampoo ([6]; shampoo with 2% MCBDC, placebo shampoo 3000 cps): 18,000 cps
reduction in combing force, dry combing [7]: 19.40%
reduction in combing force, wet combing [7]: 51.08%
sensorial evaluation [8]: significant enhancement of sensory attributes
Drop in surface tension of water [9]: 35 dynes
surface tension of water ([9]; at 1.0%, 30° C., reduced from 72 Mn/m): 35 Mn/m
reduction in combing force after UV exposure, dry combing [10]: about 30%
reduction in combing force after UV exposure, wet combing [10]: about 30%
TVC E. coli ([11]; 0 hr): 0.41 × 10^4 cfu/gm
TVC E. coli ([11]; 24 hr): <10 cfu/gm
TVC E. coli ([11]; 48 hr): <10 cfu/gm
TVC E. coli ([11]; 7 days): <10 cfu/gm
TVC E. coli ([11]; 14 days): <10 cfu/gm
TVC E. coli ([11]; 21 days): <10 cfu/gm
TVC E. coli ([11]; 28 days): <10 cfu/gm
TVC Asp. niger ([12]; 0 hr): 0.78 × 10^5 cfu/gm
TVC Asp. niger ([12]; 24 hr): 1.16 × 10^1 cfu/gm
TVC Asp. niger ([12]; 48 hr): 2.03 × 10^2 cfu/gm
TVC Asp. niger ([12]; 7 days): <10 cfu/gm
TVC Asp. niger ([12]; 14 days): <10 cfu/gm
TVC Asp. niger ([12]; 21 days): <10 cfu/gm
TVC Asp. niger ([12]; 28 days): <10 cfu/gm
TVC S. aureus ([13]; 0 hr): 3 × 10^6 cfu/gm
TVC S. aureus ([13]; 24 hr): <10 cfu/gm
TVC S. aureus ([13]; 48 hr): <10 cfu/gm
TVC S. aureus ([13]; 7 days): <10 cfu/gm
TVC S. aureus ([13]; 14 days): <10 cfu/gm
TVC S. aureus ([13]; 21 days): <10 cfu/gm
TVC S. aureus ([13]; 28 days): <10 cfu/gm
TVC Ps. Aeruginosa ([14]; 0 hr): 0.43 × 10^5 cfu/gm
TVC Ps. Aeruginosa ([14]; 24 hr): 4.16 × 10^4 cfu/gm
TVC Ps. Aeruginosa ([14]; 48 hr): 4.16 × 10^4 cfu/gm
TVC Ps. Aeruginosa ([14]; 7 days): <10 cfu/gm
TVC Ps. Aeruginosa ([14]; 14 days): <10 cfu/gm
TVC Ps. Aeruginosa ([14]; 21 days): <10 cfu/gm
TVC Ps. Aeruginosa ([14]; 28 days): <10 cfu/gm
TVC C. albicans ([15]; 0 hr): 0.6 × 10^3 cfu/gm
TVC C. albicans ([15]; 24 hr): <10 cfu/gm
TVC C. albicans ([15]; 48 hr): <10 cfu/gm
TVC C. albicans ([15]; 7 days): <10 cfu/gm
TVC C. albicans ([15]; 14 days): <10 cfu/gm
TVC C. albicans ([15]; 21 days): <10 cfu/gm
TVC C. albicans ([15]; 28 days): <10 cfu/gm
